Assay results from PMC11576293, “New series of 4,6-diaryl pyrimidines: facile synthesis and antiproliferative activity as dual EGFR/VEGFR-2 inhibitors” (Frontiers in Chemistry, 2024).

Key:
Test in all cases: NCI-60 single-dose screen
Format in all cases: cell-based
[1] = system: SNB-75; conditions: Homo sapiens, single dose 10 µM, '-' = no inhibition, read-out: % Growth Inhibition
Description: (§1) The National Cancer Institute’s Developmental Therapeutic Program (www.dtp.nci.nih.gov) has tested compounds 9–29 (except compounds 21 and 22) against 60 cancer cell lines from nine types (leukemia, lung, colon, CNS, melanoma, ovarian, renal, prostate, and breast cancer) at a single dose (10 μM) ([El-Sherief et al., 2018]). […] The most sensitive cells included leukemia (SR, K-562, and MOLT-4), lung (NCI-H522, […], and EKVX), breast (MCF-7 and T-47D), colon (HCT-15 and HT-29), and ovarian (NCI/ADR-RES).
(§2) The National Cancer Institute’s Developmental Therapeutic Program (www.dtp.nci.nih.gov) evaluated compounds 9–29 (excluding 21 and 22) against 60 cancer cell lines from nine categories (leukemia, lung, colon, CNS, melanoma, ovarian, renal, prostate, and breast cancer) at a single dose (10 μM) ([El-Sherief et al., 2018]). See Supplementary Material A1 for more details.

[2] = system: NCI/ADR-RES; conditions: Homo sapiens, single dose 10 µM, '-' = no inhibition, read-out: % Growth Inhibition
Description: as §1, §2

[3] = system: IGROV1; conditions: Homo sapiens, IGROV-1, single dose 10 µM, '-' = no inhibition, read-out: % Growth Inhibition
Description: as §1, §2

[4] = system: ACHN 1; conditions: Homo sapiens, single dose 10 µM, '-' = no inhibition, read-out: % Growth Inhibition
Description: as §1, §2

[5] = system: SK-MEL-5; conditions: Homo sapiens, single dose 10 µM, '-' = no inhibition, read-out: % Growth Inhibition
Description: as §1, §2

[6] = system: SN12C; conditions: Homo sapiens, single dose 10 µM, '-' = no inhibition, read-out: % Growth Inhibition
Description: as §1, §2

[7] = system: TK-10; conditions: Homo sapiens, single dose 10 µM, '-' = no inhibition, read-out: % Growth Inhibition
Description: as §1, §2

[8] = system: SF-268; conditions: Homo sapiens, single dose 10 µM, '-' = no inhibition, read-out: % Growth Inhibition
Description: as §1, §2

[9] = system: NCI-H23; conditions: Homo sapiens, single dose 10 µM, '-' = no inhibition, read-out: % Growth Inhibition
Description: as §1, §2

[10] = system: MDA-MB231/ATCC; conditions: Homo sapiens, MDA-MB-231, single dose 10 µM, '-' = no inhibition, read-out: % Growth Inhibition
Description: as §1, §2

[11] = system: UO-31; conditions: Homo sapiens, single dose 10 µM, '-' = no inhibition, read-out: % Growth Inhibition
Description: as §1, §2

[12] = system: HCC-2998; conditions: Homo sapiens, single dose 10 µM, '-' = no inhibition, read-out: % Growth Inhibition
Description: as §1, §2

[13] = system: SK-MEL-28; conditions: Homo sapiens, single dose 10 µM, '-' = no inhibition, read-out: % Growth Inhibition
Description: as §1, §2

[14] = system: OVCAR-5; conditions: Homo sapiens, single dose 10 µM, '-' = no inhibition, read-out: % Growth Inhibition
Description: as §1, §2

[15] = system: U251; conditions: Homo sapiens, U-251, single dose 10 µM, '-' = no inhibition, read-out: % Growth Inhibition
Description: as §1, §2

[16] = system: OVCAR-4; conditions: Homo sapiens, single dose 10 µM, '-' = no inhibition, read-out: % Growth Inhibition
Description: as §1, §2

[17] = system: OVCAR-8; conditions: Homo sapiens, single dose 10 µM, '-' = no inhibition, read-out: % Growth Inhibition
Description: as §1, §2

[18] = system: K-562; conditions: Homo sapiens, K562, single dose 10 µM, '-' = no inhibition, read-out: % Growth Inhibition
Description: as §1, §2

[19] = system: COLO 205; conditions: Homo sapiens, single dose 10 µM, '-' = no inhibition, read-out: % Growth Inhibition
Description: as §1, §2

[20] = system: KM12; conditions: Homo sapiens, single dose 10 µM, '-' = no inhibition, read-out: % Growth Inhibition
Description: as §1, §2

[21] = system: RXF 393; conditions: Homo sapiens, single dose 10 µM, '-' = no inhibition, read-out: % Growth Inhibition
Description: as §1, §2

[22] = system: OVCAR-3; conditions: Homo sapiens, single dose 10 µM, '-' = no inhibition, read-out: % Growth Inhibition
Description: as §1, §2

[23] = system: NCI-H322M; conditions: Homo sapiens, single dose 10 µM, '-' = no inhibition, read-out: % Growth Inhibition
Description: as §1, §2

[24] = system: NCI-H460; conditions: Homo sapiens, single dose 10 µM, '-' = no inhibition, read-out: % Growth Inhibition
Description: as §1, §2

[25] = system: EKVX; conditions: Homo sapiens, single dose 10 µM, '-' = no inhibition, read-out: % Growth Inhibition
Description: as §1, §2

[26] = system: PC-3; conditions: Homo sapiens, single dose 10 µM, '-' = no inhibition, read-out: % Growth Inhibition
Description: as §1, §2

[27] = system: UACC-62; conditions: Homo sapiens, single dose 10 µM, '-' = no inhibition, read-out: % Growth Inhibition
Description: as §1, §2

[28] = system: A498; conditions: Homo sapiens, single dose 10 µM, '-' = no inhibition, read-out: % Growth Inhibition
Description: as §1, §2

[29] = system: A549/ATCC; conditions: Homo sapiens, single dose 10 µM, '-' = no inhibition, read-out: % Growth Inhibition
Description: as §1, §2

[30] = system: MDA-MB-468; conditions: Homo sapiens, single dose 10 µM, '-' = no inhibition, read-out: % Growth Inhibition
Description: as §1, §2

[31] = system: SK-MEL-2; conditions: Homo sapiens, single dose 10 µM, '-' = no inhibition, read-out: % Growth Inhibition
Description: as §1, §2

[32] = system: UACC-257; conditions: Homo sapiens, single dose 10 µM, '-' = no inhibition, read-out: % Growth Inhibition
Description: as §1, §2

[33] = system: DU-145; conditions: Homo sapiens, single dose 10 µM, '-' = no inhibition, read-out: % Growth Inhibition
Description: as §1, §2

[34] = system: HOP-92; conditions: Homo sapiens, single dose 10 µM, '-' = no inhibition, read-out: % Growth Inhibition
Description: as §1, §2

[35] = system: HOP-62; conditions: Homo sapiens, single dose 10 µM, '-' = no inhibition, read-out: % Growth Inhibition
Description: as §1, §2

[36] = system: SNB-19; conditions: Homo sapiens, single dose 10 µM, '-' = no inhibition, read-out: % Growth Inhibition
Description: as §1, §2

[37] = system: HCT-116; conditions: Homo sapiens, single dose 10 µM, '-' = no inhibition, read-out: % Growth Inhibition
Description: as §1, §2

[38] = system: SR; conditions: Homo sapiens, single dose 10 µM, '-' = no inhibition, read-out: % Growth Inhibition
Description: as §1, §2

[39] = system: LOX IMVI; conditions: Homo sapiens, single dose 10 µM, '-' = no inhibition, read-out: % Growth Inhibition
Description: as §1, §2

[40] = system: CAKI-1; conditions: Homo sapiens, single dose 10 µM, '-' = no inhibition, read-out: % Growth Inhibition
Description: as §1, §2

[41] = system: RPMI-8226; conditions: Homo sapiens, single dose 10 µM, '-' = no inhibition, read-out: % Growth Inhibition
Description: as §1, §2

[42] = system: MCF7; conditions: Homo sapiens, single dose 10 µM, '-' = no inhibition, read-out: % Growth Inhibition
Description: as §1, §2

[43] = system: 786-0; conditions: Homo sapiens, single dose 10 µM, '-' = no inhibition, read-out: % Growth Inhibition
Description: as §1, §2

[44] = system: MDA-MB-435; conditions: Homo sapiens, single dose 10 µM, '-' = no inhibition, read-out: % Growth Inhibition
Description: as §1, §2

[45] = system: BT-549; conditions: Homo sapiens, single dose 10 µM, '-' = no inhibition, read-out: % Growth Inhibition
Description: as §1, §2

[46] = system: HL-60(TB); conditions: Homo sapiens, single dose 10 µM, '-' = no inhibition, read-out: % Growth Inhibition
Description: as §1, §2

[47] = system: MALME-3M; conditions: Homo sapiens, single dose 10 µM, '-' = no inhibition, read-out: % Growth Inhibition
Description: as §1, §2

[48] = system: NCI-H522; conditions: Homo sapiens, single dose 10 µM, '-' = no inhibition, read-out: % Growth Inhibition
Description: as §1, §2

With `COc1ccc(-c2cc(-c3ccc(Cl)cc3)nc(SC)n2)cc1` [Compound 9, 4-(4-Chlorophenyl)-6-(4-methoxyphenyl)-2-(methylthio)pyrimidine] the inhibition at 10 µM [1] was < 0%, the inhibition at 10 µM [2] was 9.84% and the inhibition at 10 µM [3] was 3.15%. It also gave an inhibition at 10 µM [4] of 4.08%, an inhibition at 10 µM [5] of 4.98% and an inhibition at 10 µM [6] of 11.2%. The inhibition at 10 µM [7] was < 0%, the inhibition at 10 µM [8] was 4.44% and the inhibition at 10 µM [9] was 9.87%. The inhibition at 10 µM [10] was 20.4%, the inhibition at 10 µM [11] was 18.1% and the inhibition at 10 µM [12] was < 0%. The inhibition at 10 µM [13] was < 0%, the inhibition at 10 µM [14] was < 0% and the inhibition at 10 µM [15] was 3.42%. For the same compound, the inhibition at 10 µM [16] was 4.46%, the inhibition at 10 µM [17] was 11% and the inhibition at 10 µM [18] was 18.6%. It also gave an inhibition at 10 µM [19] of 0.19%, an inhibition at 10 µM [20] of 5.71% and an inhibition at 10 µM [21] of 7.91%. For the same compound, the inhibition at 10 µM [22] was < 0%, the inhibition at 10 µM [23] was 14.3% and the inhibition at 10 µM [24] was 4.25%. It also gave an inhibition at 10 µM [25] of 19.4%, an inhibition at 10 µM [26] of 6.22% and an inhibition at 10 µM [27] of 26%. The inhibition at 10 µM [28] was < 0%, the inhibition at 10 µM [29] was 7.56% and the inhibition at 10 µM [30] was 26.2%. For the same compound, the inhibition at 10 µM [31] was < 0%, the inhibition at 10 µM [32] was 5.09% and the inhibition at 10 µM [33] was 5.68%. For the same compound, the inhibition at 10 µM [34] was 3.16%, the inhibition at 10 µM [35] was 9.16% and the inhibition at 10 µM [36] was 4.85%. It also gave an inhibition at 10 µM [37] of 5.47%, an inhibition at 10 µM [38] of 12.7% and an inhibition at 10 µM [39] of 12.2%. It also gave an inhibition at 10 µM [40] of 28.8%, an inhibition at 10 µM [41] of 10.8% and an inhibition at 10 µM [42] of 28.7%. The inhibition at 10 µM [43] was 1.88%, the inhibition at 10 µM [44] was 1.45% and the inhibition at 10 µM [45] was < 0%. The inhibition at 10 µM [46] was 7.42%, the inhibition at 10 µM [47] was 11.3% and the inhibition at 10 µM [48] was 16%.
